Experimental data published in ChEMBL document CHEMBL1137831, “Synthesis and antibacterial activity of some aryloxy/thioaryloxy oxazolidinone derivatives” (2004).
In brackets after ≈: the same amount, converted by molar mass.

Columns and labels:
[1] = tested on: Klebsiella pneumoniae; assay: Minimal inhibitory concentration against Klebsiella pneumoniae ATCC 15380; assay type: functional
[2] = tested on: Staphylococcus epidermidis; assay: Minimal inhibitory concentration against methicillin resistant Staphylococcus epidermidis ATCC 23760; assay type: functional
[3] = tested on: Salmonella typhi; assay: Minimal inhibitory concentration against Salmonella typhi (MDR) ICH 098; assay type: functional, Salmonella enterica subsp. enterica serovar Typhi; details: Salmonella enterica
[4] = tested on: Pseudomonas aeruginosa; assay: Minimal inhibitory concentration against Pseudomonas aeruginosa ATCC 27853; assay type: functional
[5] = tested on: Staphylococcus aureus; assay: Minimal inhibitory concentration against methicillin resistant Staphylococcus aureus ST450; assay type: functional
[6] = tested on: Staphylococcus epidermidis; assay: Minimal inhibitory concentration against Staphylococcus epidermidis ATCC 12228; assay type: functional
[7] = tested on: Enterococcus faecium; assay: Minimal inhibitory concentration against Enterococcus faecium 6A-VRE; assay type: functional
[8] = tested on: Escherichia coli; assay: Minimal inhibitory concentration against Escherichia coli ATCC 25922; assay type: functional
[9] = tested on: Serratia marcescens; assay: Minimal inhibitory concentration against Serratia marcescens ATCC 12999; assay type: functional
[10] = tested on: Enterococcus faecalis; assay: Minimal inhibitory concentration against Enterococcus faecalis ATCC 29212; assay type: functional
[11] = tested on: Enterococcus faecalis; assay: Minimal inhibitory concentration against Enterococcus faecalis (VRE) ATCC 346-VRE; assay type: functional
[12] = tested on: Salmonella enterica subsp. enterica serovar Abony; assay: Minimal inhibitory concentration against Salmonella abony NCTC 6017; assay type: functional
[13] = tested on: Staphylococcus aureus; assay: Minimal inhibitory concentration against Staphylococcus aureus ATCC 25923; assay type: functional
[14] = tested on: Enterococcus durans; assay: Minimal inhibitory concentration against Enterococcus durans ATCC 581; assay type: functional
[15] = tested on: Bacillus cereus; assay: Minimal inhibitory concentration against Bacillus cereus; assay type: functional
[16] = tested on: Staphylococcus aureus; assay: Minimal inhibitory concentration against methicillin resistant Staphylococcus aureus ST450; value ranges from 4-16 ug/mL; assay type: functional
[17] = tested on: Staphylococcus aureus; assay: Minimal inhibitory concentration against methicillin resistant Staphylococcus aureus ST450; value ranges from 4-8 ug/mL; assay type: functional
[18] = tested on: Staphylococcus aureus; assay: Minimal inhibitory concentration against Staphylococcus aureus ATCC 25923; value ranges from 4-8 ug/mL; assay type: functional
[19] = tested on: Staphylococcus aureus; assay: Minimal inhibitory concentration against methicillin resistant Staphylococcus aureus ST450; value ranges from 2-4 ug/mL; assay type: functional
[20] = tested on: Staphylococcus aureus; assay: Minimal inhibitory concentration against methicillin resistant Staphylococcus aureus ST450; value ranges from 1-2 ug/mL; assay type: functional

Row | SMILES | MIC [1] | MIC [2] | MIC [3] | MIC [4] | MIC [5] | MIC [6] | MIC [7] | MIC [8] | MIC [9] | MIC [10] | MIC [11] | MIC [12] | MIC [13] | MIC [14] | MIC [15] | MIC [16] | MIC [17] | MIC [18] | MIC [19] | MIC [20]
1 | CC(=O)Nc1ccc(Sc2ccc(N3C[C@H](C/N=C(/S)NC4CC4)OC3=O)cc2F)cc1 | > 16 µg/mL | 8 µg/mL (≈ 16.9 µM) | > 16 µg/mL | > 16 µg/mL | 16 µg/mL (≈ 33.7 µM) | 8 µg/mL (≈ 16.9 µM) | 8 µg/mL (≈ 16.9 µM) | > 16 µg/mL | > 16 µg/mL | 8 µg/mL (≈ 16.9 µM) | > 16 µg/mL | > 16 µg/mL | 16 µg/mL (≈ 33.7 µM) | 8 µg/mL (≈ 16.9 µM) | > 16 µg/mL | – | – | – | – | –
2 | CC(=O)Nc1ccc(Oc2ccc(N3C[C@H](C/N=C(/S)NN)OC3=O)cc2F)cc1 | > 16 µg/mL | 8 µg/mL (≈ 18.5 µM) | > 16 µg/mL | > 16 µg/mL | – | 4 µg/mL (≈ 9.23 µM) | 4 µg/mL (≈ 9.23 µM) | > 16 µg/mL | > 16 µg/mL | 4 µg/mL (≈ 9.23 µM) | 8 µg/mL (≈ 18.5 µM) | > 16 µg/mL | 4 µg/mL (≈ 9.23 µM) | 4 µg/mL (≈ 9.23 µM) | > 16 µg/mL | 16 µg/mL (≈ 36.9 µM) | – | – | – | –
3 | CO/C(S)=N\C[C@H]1CN(c2ccc(Sc3ccc(NC(C)=O)cc3)c(F)c2)C(=O)O1 | > 16 µg/mL | 8 µg/mL (≈ 17.8 µM) | > 16 µg/mL | > 16 µg/mL | – | 4 µg/mL (≈ 8.9 µM) | 4 µg/mL (≈ 8.9 µM) | > 16 µg/mL | > 16 µg/mL | 4 µg/mL (≈ 8.9 µM) | 8 µg/mL (≈ 17.8 µM) | > 16 µg/mL | – | 4 µg/mL (≈ 8.9 µM) | > 16 µg/mL | – | 8 µg/mL (≈ 17.8 µM) | 8 µg/mL (≈ 17.8 µM) | – | –
4 | CC(=O)NC[C@H]1CN(c2ccc(Oc3ccc(NC(C)=O)cc3)c(F)c2)C(=O)O1 | > 16 µg/mL | 4 µg/mL (≈ 9.97 µM) | > 16 µg/mL | > 16 µg/mL | – | 2 µg/mL (≈ 4.98 µM) | 4 µg/mL (≈ 9.97 µM) | > 16 µg/mL | > 16 µg/mL | 4 µg/mL (≈ 9.97 µM) | 4 µg/mL (≈ 9.97 µM) | > 16 µg/mL | 2 µg/mL (≈ 4.98 µM) | 4 µg/mL (≈ 9.97 µM) | > 16 µg/mL | – | – | – | 4 µg/mL (≈ 9.97 µM) | –
5 | CC(=O)NC[C@H]1CN(c2ccc(Oc3ccccc3NC(C)=O)c(F)c2)C(=O)O1 | > 16 µg/mL | > 16 µg/mL | > 16 µg/mL | > 16 µg/mL | > 16 µg/mL | > 16 µg/mL | > 16 µg/mL | > 16 µg/mL | > 16 µg/mL | > 16 µg/mL | > 16 µg/mL | > 16 µg/mL | > 16 µg/mL | > 16 µg/mL | > 16 µg/mL | – | – | – | – | –
6 | CC(=O)Nc1ccc(Sc2ccc(N3C[C@H](C/N=C(/S)NN)OC3=O)cc2F)cc1 | > 16 µg/mL | 4 µg/mL (≈ 8.9 µM) | > 16 µg/mL | > 16 µg/mL | – | 4 µg/mL (≈ 8.9 µM) | 16 µg/mL (≈ 35.6 µM) | > 16 µg/mL | > 16 µg/mL | 4 µg/mL (≈ 8.9 µM) | 8 µg/mL (≈ 17.8 µM) | > 16 µg/mL | 4 µg/mL (≈ 8.9 µM) | 8 µg/mL (≈ 17.8 µM) | > 16 µg/mL | – | 8 µg/mL (≈ 17.8 µM) | – | – | –
7 | CC(=O)NC[C@H]1CN(c2ccc(Sc3ccc(NC(C)=O)cc3)c(F)c2)C(=O)O1 | > 16 µg/mL | 2 µg/mL (≈ 4.79 µM) | > 16 µg/mL | > 16 µg/mL | – | 1 µg/mL (≈ 2.4 µM) | 2 µg/mL (≈ 4.79 µM) | > 16 µg/mL | > 16 µg/mL | 2 µg/mL (≈ 4.79 µM) | 2 µg/mL (≈ 4.79 µM) | > 16 µg/mL | 1 µg/mL (≈ 2.4 µM) | 2 µg/mL (≈ 4.79 µM) | > 16 µg/mL | – | – | – | – | 2 µg/mL (≈ 4.79 µM)
8 | CO/C(S)=N\C[C@H]1CN(c2ccc(Oc3ccc(NC(C)=O)cc3)c(F)c2)C(=O)O1 | > 16 µg/mL | 16 µg/mL (≈ 36.9 µM) | > 16 µg/mL | > 16 µg/mL | 16 µg/mL (≈ 36.9 µM) | 8 µg/mL (≈ 18.5 µM) | 16 µg/mL (≈ 36.9 µM) | > 16 µg/mL | > 16 µg/mL | 8 µg/mL (≈ 18.5 µM) | 8 µg/mL (≈ 18.5 µM) | > 16 µg/mL | 8 µg/mL (≈ 18.5 µM) | 8 µg/mL (≈ 18.5 µM) | > 16 µg/mL | – | – | – | – | –
9 | CC(=O)Nc1ccc(Oc2ccc(N3C[C@H](C/N=C(\N)S)OC3=O)cc2F)cc1 | > 16 µg/mL | 4 µg/mL (≈ 9.56 µM) | > 16 µg/mL | > 16 µg/mL | – | 2 µg/mL (≈ 4.78 µM) | 4 µg/mL (≈ 9.56 µM) | > 16 µg/mL | > 16 µg/mL | 4 µg/mL (≈ 9.56 µM) | 4 µg/mL (≈ 9.56 µM) | > 16 µg/mL | 2 µg/mL (≈ 4.78 µM) | 2 µg/mL (≈ 4.78 µM) | > 16 µg/mL | – | – | – | 4 µg/mL (≈ 9.56 µM) | –
10 | CC(=O)NC[C@H]1CN(c2ccc(Oc3cccc(NC(C)=O)c3)c(F)c2)C(=O)O1 | > 16 µg/mL | > 16 µg/mL | > 16 µg/mL | > 16 µg/mL | > 16 µg/mL | > 16 µg/mL | > 16 µg/mL | > 16 µg/mL | > 16 µg/mL | > 16 µg/mL | > 16 µg/mL | > 16 µg/mL | > 16 µg/mL | > 16 µg/mL | > 16 µg/mL | – | – | – | – | –
11 | CC(=O)Nc1ccc(Sc2ccc(N3C[C@H](C/N=C(\N)S)OC3=O)cc2F)cc1 | > 16 µg/mL | 2 µg/mL (≈ 4.6 µM) | > 16 µg/mL | > 16 µg/mL | – | 1 µg/mL (≈ 2.3 µM) | 2 µg/mL (≈ 4.6 µM) | > 16 µg/mL | > 16 µg/mL | 2 µg/mL (≈ 4.6 µM) | 2 µg/mL (≈ 4.6 µM) | > 16 µg/mL | 1 µg/mL (≈ 2.3 µM) | 2 µg/mL (≈ 4.6 µM) | > 16 µg/mL | – | – | – | – | 2 µg/mL (≈ 4.6 µM)
12 | CC(=O)Nc1ccc(Oc2ccc(N3C[C@H](C/N=C(/S)N(C)C)OC3=O)cc2F)cc1 | > 16 µg/mL | 16 µg/mL (≈ 35.8 µM) | > 16 µg/mL | > 16 µg/mL | 16 µg/mL (≈ 35.8 µM) | 16 µg/mL (≈ 35.8 µM) | > 16 µg/mL | > 16 µg/mL | > 16 µg/mL | 16 µg/mL (≈ 35.8 µM) | 16 µg/mL (≈ 35.8 µM) | > 16 µg/mL | 16 µg/mL (≈ 35.8 µM) | 16 µg/mL (≈ 35.8 µM) | > 16 µg/mL | – | – | – | – | –
13 | CC(=O)Nc1ccc(Oc2ccc(N3C[C@H](C/N=C(/S)NC4CC4)OC3=O)cc2F)cc1 | > 16 µg/mL | 16 µg/mL (≈ 34.9 µM) | > 16 µg/mL | > 16 µg/mL | 16 µg/mL (≈ 34.9 µM) | 16 µg/mL (≈ 34.9 µM) | > 16 µg/mL | > 16 µg/mL | > 16 µg/mL | 8 µg/mL (≈ 17.4 µM) | 16 µg/mL (≈ 34.9 µM) | > 16 µg/mL | > 16 µg/mL | 16 µg/mL (≈ 34.9 µM) | > 16 µg/mL | – | – | – | – | –
14 | CC(=O)Nc1ccc(Sc2ccc(N3C[C@H](C/N=C(/S)N(C)C)OC3=O)cc2F)cc1 | > 16 µg/mL | 16 µg/mL (≈ 34.6 µM) | > 16 µg/mL | > 16 µg/mL | > 16 µg/mL | 16 µg/mL (≈ 34.6 µM) | > 16 µg/mL | > 16 µg/mL | > 16 µg/mL | 8 µg/mL (≈ 17.3 µM) | 16 µg/mL (≈ 34.6 µM) | > 16 µg/mL | 16 µg/mL (≈ 34.6 µM) | 16 µg/mL (≈ 34.6 µM) | > 16 µg/mL | – | – | – | – | –
15 | CC(=O)NC[C@H]1CN(c2ccc(N3CCOCC3)c(F)c2)C(=O)O1 [LINEZOLID] | > 16 µg/mL | 2 µg/mL (≈ 5.93 µM) | > 16 µg/mL | > 16 µg/mL | – | 2 µg/mL (≈ 5.93 µM) | 2 µg/mL (≈ 5.93 µM) | > 16 µg/mL | > 16 µg/mL | – | – | > 16 µg/mL | – | 2 µg/mL (≈ 5.93 µM) | > 16 µg/mL | – | – | – | – | –
